Literature values, collected in US7618976B2, “Methods for the production of sildenafil base and citrate salt” (Teva Pharmaceutical Industries Ltd, priority 2004, dated 2009).

Test system: isolated human corpus cavernosum

## CCCc1nn(C)c2c(=O)[nH]c(-c3cc(S(=O)(=O)N4CCN(C)CC4)ccc3OCC)nc12 [Sildenafil]
  direct relaxant effect on isolated human corpus cavernosum: no direct relaxant effect
